The values below come from patent US7910739B2, “Acetylcholinesterase dual inhibitors” (priority 2003, dated 2011).

Series [1] addresses T1, AChE (from bovine erythrocytes) (Bos taurus, UniProt P23795).
T1 construct: 0.02 unit AChE (Sigma Chemical Co. from bovine erythrocytes); purchased Sigma Chemical Co; host or cells: bovine erythrocytes (natural source)
The experiment in a line: biochemical. As to conditions: AChE from bovine erythrocytes, 30° C., pH 8; read-out: IC50 AChE. The series is classed as biochemical. As for the experimental part: Acetylcholinesterase (AChE) Inhibition (from Bovine Erythrocytes)
AChE inhibitory activity was evaluated at 30° C. by the colorimetric method reported by Ellman [Ellman, G. L.; Courtney, K. D.; Andres, B.; Featherstone, R. M. Biochem. Pharmacol. 1961, 7, 88-95]. The assay solution consisted of 0.1 M phosphate buffer pH 8, 0.3 mM 5,5′-dithiobis(2-nitrobenzoic acid) (DTNB, Ellman's reagent), 0.02 unit AChE (Sigma Chemical Co. from bovine erythrocytes), and 0.5 mM acetylthiocholine iodide as the substrate of the enzymatic reaction. The compounds tested were added to the assay solution and pre incubated with the enzyme for 5 min at 30° C. After that period, the substrate was added. […] The compound concentration producing 50% of AChE inhibition (IC50) was determined.

The target of a further series is T2, BuChE from human serum (Homo sapiens, UniProt P06276).
T2 construct: 0.01 unit BuChE from human serum; from tissue; host or cells: human serum
The experiment in a line: Butyrylcholinesterase (BuChE) inhibition, Ellman colorimetric method. The series is classed as biochemical. As to conditions: BuChE from human serum, 30° C., pH 8; read-out: IC50 BuChE. As for the experimental part:
Butyrylcholinesterase (BuChE) Inhibition (from Human Serum)
BuChE inhibitory activity was evaluated at 30° C. by the colorimetric method reported by Ellman. The assay solution consisted of 0.01 unit BuChE from human serum, 0.1 M sodium phosphate buffer pH 8, 0.3 mM 5,5′-dithiobis(2-nitrobenzoic acid) (DTNB, Ellman's reagent), and 0.5 mM butyrylthiocholine iodide as the substrate of the enzymatic reaction. Enzyme activity was determined by measuring the absorbance at 405 nm during 5 minutes with a microplate reader Digiscan 340T. The tested compounds were preincubated with the enzyme for 10 minutes at 30° C. The reaction rate was calculated with, at least, triplicate measurements. The IC50 is defined as the concentration of each compound that reduces a 50% the enzymatic activity with respect to that without inhibitor.
(DTNB colorimetry detects thiols as they appear.)

The subject of series [2] is human neuroblastoma cell line SH-SY5Y. Description: Toxicity measurement (LDH release). As to conditions: 24 hours exposure. The series is classed as cell-based. As for the experimental part:
The cytotoxicity effect of the molecules was tested in the human neuroblastoma cell line SH-SY5Y. These cells were cultured in 96-well plates in DULBECCO'S MOD EAGLE medium, supplemented with 10% fetal bovine serum and 1% penicillin/streptomycin, and grown in a 5% CO2 humidified incubator at 37° C.
The cells were plated at 10^4 cells for each well, at least, 48 hours before the toxicity measure. Cells were exposed for 24 hours to the compounds at different concentrations (from 10^−5 to 10^−9), quantitative assessment of cell death was made by measurement of the intracellular enzyme lactate dehydrogenase (LDH) (citotoxicity detection kit, Roche). The quantity of LDH was evaluated in a microplate reader Anthos 2010, at 492 and 620 nm. Controls were taken as 100% viability.
A general note: Release of lactate dehydrogenase indicates damage to the cell membrane.

The target in the next series is AChE peripheral site (Bos taurus, UniProt P23795). Description: Propidium competition (fluorescence). The series is classed as binding. The conditions noted are these: 10 μM AchE, 20 μM propidium iodide, pH 8.0. As for the experimental part:
Fluorescence was measured in a Fluostar optima plate reader (BMG). Measurements were carried out in 100 μl solution volume, in 96-well plates. The buffer used wad 1 mM Tris/HCl, pH 8.0. 10 μM AchE was incubated, at least 6 hours, with the molecules at different concentrations. 20 μM propidium iodide was added 10 min before fluorescence measurement. The excitation wavelength was 485 nm, and that of emission, 620 nm.

For series [3], the target named is T3, β-amyloid-huAChE aggregation complex (Homo sapiens, UniProt P22303).
T3 construct: purchased Sigma-Aldrich (huAChE); rPeptide (Aβ1-40)
Description: Inhibition of β-amyloid aggregation (Congo Red binding). The conditions noted are these: compound used at its IC50; Aβ1-40 0.1 mM, Aβ:huAChE 200:1, 48 hours. The series is classed as biochemical. The method, then: Inhibition of β-Amyloid Aggregation
The generation of AChE-Aβ complexes were carried out as described previously [Alvarez, A et al. J. Neurosci., 1998, 18, 3213-3223; Muñoz, F. J.; Inestrosa, N. C. FEBS Let., 1999, 450, 205-209]. Stock solutions of Aβ1-40 (rPeptide, Georgia USA) at 3.5 mM were dissolved in PBS (pH 7.4) after HFIP treatment to obtain monomeric starting material, according to manufacture's recommendations. For co-incubation experiments, 0.1 mM of peptide was mixed with human recombinant acetylcholinesterase (huAchE, Sigma-Aldrich), in the same buffer at molar ratio Aβ:huAChE 200:1, and stirred for 48 hours in a microtiter plate at room temperature. The fibrils obtained were characterized by Congo Red (CR) binding.
For the inhibition of β-amyloid aggregation, the compounds tested were used at the IC50 defined in the previous paragraph of the biological evaluation, 50 μM propidium iodide was used as reference [Inestrosa, N. C et al., J. Neuron, 1996, 16, 881-891].
To quantify the amount of fibrils aggregated, the binding to CR was done as described [Klunk, W E.; Pettegrew, J W.; Abraham, D J. J. Hystochem Cytochem., 1989, 8, 1293-1297]. Briefly, 5.5 μl aliquot of the aggregation mixture was added to 132 μl of a 25 μM CR solution (100 mM phosphate buffer pH 7.4, 150 mM NaCl), and incubated for 30 minutes at room temperature. Absorbance was measured at 480 and 540 nm and the molarity of aggregates calculated by CR(M)=(A540/25295)−(A480/46306).

For orientation: IC50 means the concentration at which inhibition is half-maximal.

T2 sequence (P06276 29-602): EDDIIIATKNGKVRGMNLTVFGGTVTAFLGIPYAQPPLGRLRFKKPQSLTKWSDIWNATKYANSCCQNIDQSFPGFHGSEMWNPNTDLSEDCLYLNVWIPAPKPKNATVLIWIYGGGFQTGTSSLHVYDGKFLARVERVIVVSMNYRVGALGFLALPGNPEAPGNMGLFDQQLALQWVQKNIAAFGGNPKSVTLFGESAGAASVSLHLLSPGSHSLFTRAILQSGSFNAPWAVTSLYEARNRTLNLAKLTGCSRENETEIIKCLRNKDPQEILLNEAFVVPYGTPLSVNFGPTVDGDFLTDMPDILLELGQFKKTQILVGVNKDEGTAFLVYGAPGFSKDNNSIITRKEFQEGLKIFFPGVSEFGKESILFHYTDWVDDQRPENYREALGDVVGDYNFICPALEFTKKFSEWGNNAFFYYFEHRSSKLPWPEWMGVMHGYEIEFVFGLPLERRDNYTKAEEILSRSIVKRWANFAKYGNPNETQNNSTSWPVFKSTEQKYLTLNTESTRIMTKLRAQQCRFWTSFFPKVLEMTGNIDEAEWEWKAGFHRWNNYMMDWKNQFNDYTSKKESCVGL
T3 sequence (P22303 32-614, one chain of several): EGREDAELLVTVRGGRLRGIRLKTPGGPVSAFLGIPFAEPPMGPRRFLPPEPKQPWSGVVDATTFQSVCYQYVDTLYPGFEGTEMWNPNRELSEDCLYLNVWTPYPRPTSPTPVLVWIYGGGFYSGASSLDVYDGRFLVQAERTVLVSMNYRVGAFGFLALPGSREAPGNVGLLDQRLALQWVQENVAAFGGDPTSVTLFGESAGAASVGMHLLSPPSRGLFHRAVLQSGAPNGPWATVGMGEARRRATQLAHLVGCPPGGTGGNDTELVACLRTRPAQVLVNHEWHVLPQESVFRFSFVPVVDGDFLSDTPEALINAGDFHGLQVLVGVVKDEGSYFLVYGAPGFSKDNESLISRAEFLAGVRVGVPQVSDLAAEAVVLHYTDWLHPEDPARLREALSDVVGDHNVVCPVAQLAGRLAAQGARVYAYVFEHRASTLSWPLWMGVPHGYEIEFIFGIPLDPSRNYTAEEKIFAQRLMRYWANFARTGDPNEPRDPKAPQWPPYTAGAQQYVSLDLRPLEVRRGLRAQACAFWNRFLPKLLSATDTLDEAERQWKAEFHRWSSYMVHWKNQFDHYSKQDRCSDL
AChE peripheral site, sequence (P23795 other isoform, or with tags, fused parts or gaps): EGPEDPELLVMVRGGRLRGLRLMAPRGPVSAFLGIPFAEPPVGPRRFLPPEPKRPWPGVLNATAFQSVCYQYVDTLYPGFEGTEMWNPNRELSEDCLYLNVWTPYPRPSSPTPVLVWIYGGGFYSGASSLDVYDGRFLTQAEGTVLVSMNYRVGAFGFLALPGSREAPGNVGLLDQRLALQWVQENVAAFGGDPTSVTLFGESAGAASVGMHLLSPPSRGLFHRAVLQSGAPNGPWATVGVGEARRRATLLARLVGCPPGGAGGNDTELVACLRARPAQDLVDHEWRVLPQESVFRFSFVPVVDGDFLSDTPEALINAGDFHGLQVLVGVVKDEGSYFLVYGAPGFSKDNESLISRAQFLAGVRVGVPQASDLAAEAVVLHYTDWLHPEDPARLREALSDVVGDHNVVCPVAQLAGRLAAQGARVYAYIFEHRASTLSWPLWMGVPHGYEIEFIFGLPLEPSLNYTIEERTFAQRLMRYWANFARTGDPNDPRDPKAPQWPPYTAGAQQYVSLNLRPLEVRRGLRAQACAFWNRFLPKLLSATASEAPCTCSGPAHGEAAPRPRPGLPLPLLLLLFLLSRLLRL
T1 sequence (P23795 other isoform, or with tags, fused parts or gaps): as above

With `O=C(CCc1c[nH]c2ccccc12)NCCCCCCNc1c2c(nc3cc(Cl)ccc13)CCCC2` [Compound 3], the IC50 in series [1] came to 0.02 nM; on BuChE from human serum, 2.9 nM. Further, the Toxicity in series [2] was 100 µM. At AChE peripheral site, this molecule displayed a Propidium competition of 1000 µM. In addition, the “reduction in the β-amyloid-huAChE aggregation complex” value in series [3] is reported as 15%.
On the same counts, the results for `CN(CCCNC(=O)CCc1c[nH]c2ccccc12)CCCNc1c2c(nc3ccccc13)CCCC2` [Compound 8, N-(3-{[3-(1,2,3,4-tetrahydro-acridin-9-ylamino)-propyl]-methyl-amino}-propyl)-3-(1H-indol-3-yl)propionamide] are 147 nM, 0.03 nM, above 100 µM, 1000 µM and 17%.
